Measurements: patent US10059688B2, “Protein tyrosine kinase modulators and methods of use” (BETTA PHARMACEUTICALS CO., LTD., priority 2013, dated 2018)

Legend:
[1] = tested on: A549 (EGFR WT) NSCLC cells; assay: Cell proliferation assay (MTS cell viability); assay type: cell-based; conditions: Homo sapiens, 72 h; A549 cells, 3 days of exposure, MTS
Protocol: (§1) Effects of test compounds on in vitro proliferation were measured by MTS cell viability assay.
A549 cells were maintained in Ham's F12K medium (Gibco) supplemented with 10% FBS, 100 units/mL penicillin, 100 units/mL streptomycin, and 2 mM glutamine.
(§2) Prepare test compounds in each well with a final medium volume of 200 μl;
Incubate for 3 days of exposure;
(§3) Prepare reagents following the instructions in the Cell Proliferation Assay kit (Promega);
(§4) Change to serum-free medium with a final volume of 100 l/well. Prepare a set of wells with medium only for background subtraction;
(§5) Add 20 μl MTS solution containing PMS to each well (final concentration of MTS will be 0.33 mg/ml);
(§6) Incubate 1 to 4 hours at 37° C. in a humidified, 5% CO2 atmosphere.
(§7) Record absorbance at 490 nm using VICTOR™ X5 plate reader (PerkinElmer).
(§8) All experimental points were set up in three wells and all experiments were repeated at least three times.

[2] = tested on: activated and resistant T790M forms of EGFR; EGFR WT; assay: In vitro cellular assays, statements across cell lines; assay type: cell-based; conditions: result in words
Protocol: as §1

[3] = target: EGFR (T790M) (h) (Homo sapiens (Human), UniProt P00533, T790M); assay: Kinase assay, single dose inhibition (Millipore, 33P-ATP filter binding); assay type: biochemical; conditions: 0.1 μM test compound, 10 μM ATP; remaining activity relative to DMSO control = 100%
Chain of EGFR (T790M) (h) (P00533 25-1210 T790M): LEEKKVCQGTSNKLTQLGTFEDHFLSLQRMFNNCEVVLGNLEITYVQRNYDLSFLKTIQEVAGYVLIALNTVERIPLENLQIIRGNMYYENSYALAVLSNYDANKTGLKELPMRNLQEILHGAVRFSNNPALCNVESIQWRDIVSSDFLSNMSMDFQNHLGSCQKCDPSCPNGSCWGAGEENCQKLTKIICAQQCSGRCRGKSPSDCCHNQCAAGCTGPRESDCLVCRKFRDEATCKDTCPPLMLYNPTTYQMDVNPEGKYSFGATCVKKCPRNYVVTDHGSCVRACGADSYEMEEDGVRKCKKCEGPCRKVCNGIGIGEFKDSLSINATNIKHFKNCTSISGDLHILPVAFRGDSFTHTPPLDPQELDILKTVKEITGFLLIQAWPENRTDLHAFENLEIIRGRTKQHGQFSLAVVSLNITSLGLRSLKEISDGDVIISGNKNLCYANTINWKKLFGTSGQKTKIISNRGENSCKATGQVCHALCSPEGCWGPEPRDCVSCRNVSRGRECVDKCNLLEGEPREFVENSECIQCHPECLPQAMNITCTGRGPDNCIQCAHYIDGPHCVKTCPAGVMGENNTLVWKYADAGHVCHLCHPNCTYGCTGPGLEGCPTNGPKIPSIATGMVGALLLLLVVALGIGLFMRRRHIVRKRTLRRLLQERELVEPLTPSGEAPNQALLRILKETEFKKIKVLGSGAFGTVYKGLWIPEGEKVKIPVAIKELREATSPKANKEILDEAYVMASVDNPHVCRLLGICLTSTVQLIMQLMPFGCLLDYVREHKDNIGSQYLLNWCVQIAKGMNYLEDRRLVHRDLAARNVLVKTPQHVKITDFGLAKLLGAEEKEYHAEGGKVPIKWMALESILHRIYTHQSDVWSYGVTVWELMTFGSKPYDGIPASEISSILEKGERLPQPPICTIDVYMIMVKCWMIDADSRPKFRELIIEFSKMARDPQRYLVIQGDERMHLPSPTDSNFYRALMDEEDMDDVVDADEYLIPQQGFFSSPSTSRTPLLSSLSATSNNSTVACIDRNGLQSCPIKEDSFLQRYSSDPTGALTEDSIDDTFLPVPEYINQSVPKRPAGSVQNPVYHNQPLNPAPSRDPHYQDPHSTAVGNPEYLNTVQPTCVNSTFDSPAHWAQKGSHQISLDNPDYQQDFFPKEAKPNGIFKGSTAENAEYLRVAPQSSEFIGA
Protocol: (§9) Assay conditions included 10 μM ATP and 100 nM test compounds.
(§10) All reactions are initiated by the addition of the MgATP mix. After incubation for 40 minutes at room temperature, the reaction is stopped by the addition of 3% phosphoric acid solution. 10 μL of the reaction is then spotted onto a P30 filtermat and washed three times for 5 minutes in 75 mM phosphoric acid and once in methanol prior to drying and scintillation counting. This assay is performed by Millipore. The experiment is carried out in duplicate. The value for the control sample (DMSO) was set to 100%, and the values for the compound-treated samples were expressed as activity relative to the control sample.

[4] = target: EGFR (T790M, L858R) (h) (Homo sapiens (Human), UniProt P00533, L858R/T790M); assay: as above; assay type: biochemical; conditions: 0.1 μM test compound, 10 μM ATP; remaining activity relative to DMSO control = 100%
Protocol: as §9, §10

[5] = target: ALK (h) (Homo sapiens (Human), UniProt Q9UM73); assay: as above; assay type: biochemical; conditions: 0.1 μM test compound, 10 μM ATP; remaining activity relative to DMSO control = 100%
Chain of ALK (h) (Q9UM73 19-1620): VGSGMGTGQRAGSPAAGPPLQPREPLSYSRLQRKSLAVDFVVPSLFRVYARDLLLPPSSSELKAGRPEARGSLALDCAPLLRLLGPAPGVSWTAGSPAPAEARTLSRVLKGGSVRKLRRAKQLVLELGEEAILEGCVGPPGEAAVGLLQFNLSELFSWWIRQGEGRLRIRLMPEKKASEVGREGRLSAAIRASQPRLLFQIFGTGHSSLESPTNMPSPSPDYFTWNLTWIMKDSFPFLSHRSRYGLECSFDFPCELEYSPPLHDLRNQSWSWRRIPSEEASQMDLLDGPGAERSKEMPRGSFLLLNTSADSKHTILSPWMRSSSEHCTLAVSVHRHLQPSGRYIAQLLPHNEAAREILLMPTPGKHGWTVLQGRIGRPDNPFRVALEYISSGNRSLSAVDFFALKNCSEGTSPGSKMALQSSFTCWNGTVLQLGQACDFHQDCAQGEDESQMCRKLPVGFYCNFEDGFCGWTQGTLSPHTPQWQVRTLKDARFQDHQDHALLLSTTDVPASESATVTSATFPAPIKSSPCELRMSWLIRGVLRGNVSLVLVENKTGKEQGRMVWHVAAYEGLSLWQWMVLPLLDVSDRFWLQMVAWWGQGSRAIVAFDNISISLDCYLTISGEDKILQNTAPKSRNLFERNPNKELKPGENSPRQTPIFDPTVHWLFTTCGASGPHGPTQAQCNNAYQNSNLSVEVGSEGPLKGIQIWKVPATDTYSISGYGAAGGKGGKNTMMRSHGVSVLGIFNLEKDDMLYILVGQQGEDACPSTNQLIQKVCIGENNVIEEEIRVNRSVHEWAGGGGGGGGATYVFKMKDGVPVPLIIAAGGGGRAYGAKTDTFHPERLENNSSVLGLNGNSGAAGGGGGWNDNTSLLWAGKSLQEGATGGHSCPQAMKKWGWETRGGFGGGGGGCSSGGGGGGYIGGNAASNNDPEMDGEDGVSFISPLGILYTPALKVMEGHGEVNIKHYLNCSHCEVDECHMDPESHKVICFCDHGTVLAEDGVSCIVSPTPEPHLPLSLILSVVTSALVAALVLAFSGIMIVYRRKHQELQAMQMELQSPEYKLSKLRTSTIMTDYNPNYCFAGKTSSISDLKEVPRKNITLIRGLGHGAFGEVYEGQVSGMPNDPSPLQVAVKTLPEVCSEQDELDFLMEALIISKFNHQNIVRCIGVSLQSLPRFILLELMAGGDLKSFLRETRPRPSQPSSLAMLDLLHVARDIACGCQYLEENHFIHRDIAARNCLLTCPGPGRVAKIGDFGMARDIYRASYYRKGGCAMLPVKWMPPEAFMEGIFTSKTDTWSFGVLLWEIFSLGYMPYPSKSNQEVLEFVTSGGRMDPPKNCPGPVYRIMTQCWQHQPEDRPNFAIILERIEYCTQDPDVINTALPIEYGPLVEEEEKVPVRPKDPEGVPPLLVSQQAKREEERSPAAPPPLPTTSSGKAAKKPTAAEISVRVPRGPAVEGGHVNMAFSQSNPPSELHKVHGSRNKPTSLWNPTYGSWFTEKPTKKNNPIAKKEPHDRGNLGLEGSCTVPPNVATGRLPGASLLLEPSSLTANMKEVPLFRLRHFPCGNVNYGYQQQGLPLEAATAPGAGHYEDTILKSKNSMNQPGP

[6] = target: EGFR (L858R) (h) (Homo sapiens (Human), UniProt P00533, L858R); assay: as above; assay type: biochemical; conditions: 0.1 μM test compound, 10 μM ATP; remaining activity relative to DMSO control = 100%
Chain of EGFR (L858R) (h) (P00533 25-1210 L858R): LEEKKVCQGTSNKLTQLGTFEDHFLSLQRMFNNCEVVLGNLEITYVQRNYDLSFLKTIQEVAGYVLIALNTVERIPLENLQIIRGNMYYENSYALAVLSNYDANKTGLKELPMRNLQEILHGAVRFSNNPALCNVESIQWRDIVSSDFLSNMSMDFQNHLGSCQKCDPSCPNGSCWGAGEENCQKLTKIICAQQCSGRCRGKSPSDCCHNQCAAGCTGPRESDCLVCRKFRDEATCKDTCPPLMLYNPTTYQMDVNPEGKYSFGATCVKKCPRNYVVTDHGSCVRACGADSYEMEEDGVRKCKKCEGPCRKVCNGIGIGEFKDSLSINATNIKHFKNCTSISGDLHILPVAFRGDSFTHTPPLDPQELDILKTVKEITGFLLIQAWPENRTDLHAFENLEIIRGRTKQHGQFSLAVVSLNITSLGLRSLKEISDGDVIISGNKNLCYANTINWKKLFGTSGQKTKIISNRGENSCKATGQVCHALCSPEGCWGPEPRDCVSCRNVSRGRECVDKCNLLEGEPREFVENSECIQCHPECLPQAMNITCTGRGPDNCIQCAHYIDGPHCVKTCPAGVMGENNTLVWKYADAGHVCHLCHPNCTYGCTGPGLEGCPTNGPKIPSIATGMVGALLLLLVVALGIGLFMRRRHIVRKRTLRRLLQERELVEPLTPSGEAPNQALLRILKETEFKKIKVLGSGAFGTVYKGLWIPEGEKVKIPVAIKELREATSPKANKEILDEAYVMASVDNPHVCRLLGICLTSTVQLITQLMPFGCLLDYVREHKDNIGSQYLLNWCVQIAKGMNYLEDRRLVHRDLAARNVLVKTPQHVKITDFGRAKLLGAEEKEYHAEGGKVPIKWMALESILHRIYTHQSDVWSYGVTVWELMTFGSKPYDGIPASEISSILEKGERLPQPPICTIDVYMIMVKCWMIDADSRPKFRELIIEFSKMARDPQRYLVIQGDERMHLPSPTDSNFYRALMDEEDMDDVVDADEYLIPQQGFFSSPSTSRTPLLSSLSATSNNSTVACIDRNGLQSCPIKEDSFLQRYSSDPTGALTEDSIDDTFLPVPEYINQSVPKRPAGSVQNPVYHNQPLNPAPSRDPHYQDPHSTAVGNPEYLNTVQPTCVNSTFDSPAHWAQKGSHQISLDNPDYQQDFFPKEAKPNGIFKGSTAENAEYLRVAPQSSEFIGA

[7] = tested on: H1975 (EGFR L858R/T790M) NSCLC cells; assay: Cell proliferation assay (MTS cell viability); assay type: cell-based; conditions: Homo sapiens, NCI-H1975, 72 h; H1975 cells, 3 days of exposure, MTS
[8] = target: EGFR (h) (Homo sapiens (Human), UniProt P00533); assay: Kinase assay, single dose inhibition (Millipore, 33P-ATP filter binding); assay type: biochemical; conditions: 0.1 μM test compound, 10 μM ATP; remaining activity relative to DMSO control = 100%
[9] = tested on: HCC827 (EGFR Del) NSCLC cells; assay: Cell proliferation assay (MTS cell viability); assay type: cell-based; conditions: Homo sapiens, 72 h; HCC827 cells, 3 days of exposure, MTS
Protocol: as §1, §2
Incubate for 3 days of exposure;
as §3, §4, §5, §6, §7, §8

[10] = tested on: A431 (EGFR WT) cells; assay: Cell proliferation assay (MTS cell viability); assay type: cell-based; conditions: Homo sapiens, A-431, 72 h, 3 days of exposure
Protocol: as §1
A431 cells were maintained in DMEM (Gibco) supplemented with 10% FBS, 100 units/mL penicillin, 100 units/mL streptomycin, and 2 mM glutamine.
as §2
Incubate for 3 days of exposure;
as §3, §4, §5, §6, §7, §8

Structure (SMILES) | IC50 [1] | activity against both activated and resistant T790M forms of EGFR in vitro cellular assays [2] | Activity (control) % EGFR (T790M) (h) [3] | Activity (control) % EGFR (T790M, L858R) (h) [4] | Activity (control) % ALK (h) [5] | Activity (control) % EGFR (L858R) (h) [6] | IC50 [7] | Activity (control) % EGFR (h) [8] | IC50 [9] | IC50 [10]
C=CC(=O)Nc1cc(Nc2ncc(Cl)c(Nc3ccccc3C(=O)C(=O)N(C)C)n2)c(OC)cc1F [Example 66, N-(5-(5-chloro-4-(2-(2-(dimethylamino)-2-oxoacetyl)phenylamino)pyrimidin-2-ylamino)-2-fluoro-4-methoxyphenyl)acrylamide] | > 3000 nM | potent activity | 66% | 24% | 35% | 104% | 50 nM | 107% | 120 nM | –
COc1cc(N2CCC(N(C)C)CC2)ccc1Nc1ncc(Cl)c(Nc2ccccc2C(=O)C(=O)N(C)C)n1 [Example 17, 2-(2-((5-chloro-2-((4-(4-(dimethylamino)piperidin-1-yl)-2-methoxyphenyl)amino)pyrimidin-4-yl)amino)phenyl)-N,N-dimethyl-2-oxoacetamide] | > 3000 nM | – | – | – | – | – | 860 nM | – | 1230 nM | 260 nM
C=C(CN(C)CCN(C)C)C(=O)Nc1ccc(OC)c(Nc2ncc(Cl)c(Nc3ccccc3C(=O)C(=O)N(C)C)n2)c1 [Example 126, N-(3-(5-chloro-4-(2-(2-(dimethylamino)-2-oxoactyl)phenylamino)pyrimidin-2-ylamino)-4-methoxyphenyl)-2-(((2-(dimethylamino)ethyl)(methyl)amino)methyl)acrylamide] | – | – | 5% | 2% | 19% | 47% | 10 nM | 93% | 20 nM | 210 nM
C=CC(=O)Nc1cc(Nc2ncc(Cl)c(Nc3ccccc3C(=O)C(=O)N(C)C)n2)ccc1OC [Example 65, N-(5-(5-chloro-4-(2-(2-(dimethylamino)-2-oxoacetyl)phenylamino)pyrimidin-2-ylamino)-2-methoxyphenyl)acrylamide] | > 3000 nM | potent activity | 80% | 25% | 19% | 102% | 20 nM | 118% | 120 nM | –
C=CC(=O)Nc1cc(Nc2ncc(Cl)c(Nc3ccccc3C(=O)C(=O)NC)n2)ccc1OC [Example 64, N-(5-(5-chloro-4-(2-(2-(methylamino)-2-oxoacetyl)phenylamino)pyrimidin-2-ylamino)-2-methoxyphenyl)acrylamide] | > 3000 nM | – | 79% | 39% | 47% | 100% | 90 nM | 106% | 450 nM | –
C=CC(=O)Nc1ccc(OC)c(Nc2ncc(Cl)c(Nc3ccccc3C(=O)C(=O)N(CC)CC)n2)c1 [Example 131, N-(3-(5-chloro-4-(2-(2-(diethylamino)-2-oxoacetyl)phenylamino)pyrimidin-2-ylamino)-4-methoxyphenyl)acrylamide] | – | – | 82% | 27% | 9% | 104% | 10 nM | 104% | 50 nM | 750 nM
COc1cc(N2CCN(C(C)=O)CC2)ccc1Nc1ncc(Cl)c(Nc2ccccc2C(=O)C(=O)N(C)C)n1 [Example 53, 2-(2-(2-(4-(4-acetylpiperazin-1-yl)-2-methoxyphenylamino)-5-chloropyrimidin-4-ylamino)phenyl)-N,N-dimethyl-2-oxoacetamide] | > 3000 nM | – | 21% | 4% | – | 60% | 210 nM | 109% | 540 nM | 50 nM
C=CC(=O)Nc1cccc(Nc2ncc(Cl)c(Nc3ccccc3C(=O)C(=O)N(C)C)n2)c1 [Example 40, N-(3-(5-chloro-4-(2-(2-(dimethylamino)-2-oxoacetyl)phenylamino)pyrimidin-2-ylamino)phenyl)acrylamide] | 640 nM | – | 79% | 24% | 28% | 103% | 10 nM | 106% | 70 nM | –
COc1cc(N2CCC(N(C)C)CC2)ccc1Nc1ncc(Cl)c(Nc2ccccc2C(=O)C(N)=O)n1 [Example 4, 2-(2-(5-chloro-2-(4-(4-(dimethylamino)piperidin-1-yl)-2-methoxyphenylamino)pyrimidin-4-ylamino)phenyl)-2-oxoacetamide] | > 3000 nM | – | 4% | 2% | 8% | 8% | > 3000 nM | 65% | 2630 nM | –
COc1cc(N2CCN(C)CC2)ccc1Nc1ncc(Cl)c(Nc2ccccc2C(=O)C(=O)N2CCOCC2)n1 [Example 44, 1-(2-(5-chloro-2-(2-methoxy-4-(4-methylpiperazin-1-yl)phenylamino)pyrimidin-4-ylamino)phenyl)-2-morpholinoethane-1,2-dione] | > 3000 nM | – | – | – | – | – | 1230 nM | – | 2360 nM | –
CNC(=O)C(=O)c1ccccc1Nc1nc(Nc2ccc(N3CCN(C)CC3)cc2OC)ncc1Cl [Example 47, 2-(2-(5-chloro-2-(2-methoxy-4-(4-methylpiperazin-1-yl)phenylamino)pyrimidin-4-ylamino)phenyl)-N-methyl-2-oxoacetamide] | > 3000 nM | – | – | – | – | – | > 3000 nM | – | > 3000 nM | –
